Laboratory results reported in patent publication EP2826473A1, “NOVEL USE OF PATCHOULOL” (Chengdu Huasun Group Inc., Ltd., priority 2012, dated 2013).
Values after ≈ are worked out from the molar mass of the structure shown. Where two headings read alike, the source gives them in different places.

Legend:
xylene-induced ear edema = conditions: mice, dose-dependent; cited from earlier work
Escherichia coli E^- = experiment: in vitro bacteriostatic activity, agar dilution MIC; type: cell-based
Streptococcus uberis = experiment: as above; type: cell-based; conditions: Streptococcus uberis 12-1
[1] = system: Staphylococcus aureus MRSA; experiment: as above; type: cell-based
Shiglla flexneri = experiment: as above; type: cell-based
Procedure: (§1) Preparation of drug-containing flat plates: patchoulol was diluted by coubling double dilution in DMSO, and 1 ml and 14 ml of sterile MH culture media in different gradient concentrations were respectively added to the disposable sterile petri dishes. Tested drugs were respectively diluted to different gradient concentrations from 768 to 0.006 µg/ml, fully mixed, and dried to reserve. As mentioned above, replacing tested drug with same amount of normal saline was used to prepare positive control plates.
(§2) Preparation of bacterial liquid: Tested strains and drug-sensitive strains used for quality control were diluted with stroke-physiological saline solution to the concentration of 10^6 CFU/ml.
(§3) Bacteriostatic activity assay […]: using multipoint inoculation instrument, the tested strain liquid was added to the drug-containing flat plates with different gradient concentrations and positive control plates respectively, and replacing the bacterial liquid with 5 µL normal saline, served as the negative control.
(§4) Staphylococcus aureus and Staphylococcus epidermidis were cultured at 35-37°C for 18-24 h in MH media (containing 2% NaCl); Streptococcus pneumonia was cultured in brain heart infusion agar media (containing 5% goat blood) within an incubator under 5% CO2 at 35°C for 24 hours; Gram-negative bacteria and other strains were placed in an incubator at 35-37°C and cultured for 18-20 h; Results were observed and recorded.
(§5) Result assessment: The minimum concentration of drug in no bacterial growth plates was regarded as the minimum inhibitory concentration (MIC) of the drug to the stain.

Escherichia coli E^+ = experiment: as above; type: cell-based
Procedure: as §1, §2, §3, §4, §5

## C[C@H]1CC[C@@]2(O)C(C)(C)[C@@H]3CC[C@@]2(C)[C@H]1C3 (stereo in doubt) [PC, (1R,4S,4aS,6R,8aS)-octahydro-4,8a,9,9-tetramethyl-1,6-methanonaphthalen-1(2H)-ol]
xylene-induced ear edema
  xylene-induced ear edema: effectively inhibit
Escherichia coli E^-; Escherichia coli E^- 10-12
  MIC: > 768 µg/mL
Escherichia coli E^-; Escherichia coli E^- 10-18
  MIC: > 768 µg/mL
Streptococcus uberis
  MIC: 25 µg/mL (≈ 112 µM)
[1]; ATCC 43300 / MRSA, Methicillin-resistant Staphylococcus aureus ATCC 43300, read-out: MIC
  MIC: 128 µg/mL (≈ 576 µM)
[1]; MRSA, Staphylococcus aureus MRSA 10-31, read-out: MIC
  MIC: 1.5 µg/mL (≈ 6.75 µM)
[1]; MRSA, Staphylococcus aureus MRSA 10-32, read-out: MIC
  MIC: 1.5 µg/mL (≈ 6.75 µM)
[1]; MRSA, Staphylococcus aureus MRSA 12-11, read-out: MIC
  MIC: 128 µg/mL (≈ 576 µM)
[1]; MRSA, Staphylococcus aureus MRSA 12-12, read-out: MIC
  MIC: 128 µg/mL (≈ 576 µM)
[1]; MRSA, Staphylococcus aureus MRSA 12-13, read-out: MIC
  MIC: 64 µg/mL (≈ 288 µM)
[1]; MRSA, Staphylococcus aureus MRSA 12-14, read-out: MIC
  MIC: 64 µg/mL (≈ 288 µM)
[1]; MRSA, Staphylococcus aureus MRSA 12-15, read-out: MIC
  MIC: 64 µg/mL (≈ 288 µM)
[1]; MRSA, Staphylococcus aureus MRSA 12-16, read-out: MIC
  MIC: 64 µg/mL (≈ 288 µM)
[1]; MRSA, Staphylococcus aureus MRSA 12-17, read-out: MIC
  MIC: 128 µg/mL (≈ 576 µM)
[1]; MRSA, Staphylococcus aureus MRSA 12-18, read-out: MIC
  MIC: 128 µg/mL (≈ 576 µM)
[1]; MRSA, Staphylococcus aureus MRSA 12-19, read-out: MIC
  MIC: 64 µg/mL (≈ 288 µM)
[1]; MRSA, Staphylococcus aureus MRSA 12-20, read-out: MIC
  MIC: 128 µg/mL (≈ 576 µM)
Shiglla flexneri; Shiglla flexneri 12-1
  MIC: 400 µg/mL (≈ 1800 µM)
Shiglla flexneri; Shiglla flexneri 12-2, read-out: MIC
  MIC: 50 µg/mL (≈ 225 µM)
Escherichia coli E^+; Escherichia coli E^+ 10-7
  MIC: > 768 µg/mL
Escherichia coli E^+; Escherichia coli E^+ 10-9
  MIC: > 768 µg/mL
